# Measurements reported in PubChem BioAssay AID1963858 (Molecular Pharmacology Branch, DTP, NCI, 2024).
# Test system: HOP-62 multicell spheroids with HUVEC/MSC, viability
# Assay: Anticancer human tumor HOP-62 cell line growth inhibition [KRAS2];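 also: viability read after a week of compound exposure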;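 as to viability, T/C: 100% = DMSO vehicle-treated spheroids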
# Conditions: for IC50: curve of first compound; for viability, T/C: stronger effect = lower value
# Procedure, shortened: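 KRAS-mutant tumor cells were grown as spheroids with HUVEC endothelial cells and human MSCs as stroma. Targeted agents were tested alone and with KRAS pathway inhibitors. Doses started at or near clinical Cmax, or 10 microM, descending half-log.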
# [1] = second compound 0.1 µM, first compound 0.0316 µM
# [2] = second compound 0.1 µM, first compound 0.1 µM
# [3] = second compound 0.1 µM, first compound 0.316 µM
# [4] = second compound 0.1 µM, first compound 1 µM
# [5] = second compound 0.1 µM, first compound 3.16 µM
# [6] = second compound 0.1 µM, first compound 10 µM
# [7] = second compound 0.316 µM, first compound 0.0316 µM
# [8] = second compound 0.316 µM, first compound 0.1 µM
# [9] = second compound 0.316 µM, first compound 0.316 µM
# [10] = second compound 0.316 µM, first compound 1 µM
# [11] = second compound 0.316 µM, first compound 3.16 µM
# [12] = second compound 0.316 µM, first compound 10 µM
# [13] = second compound 1 µM, first compound 0.0316 µM
# [14] = second compound 1 µM, first compound 0.1 µM
# [15] = second compound 1 µM, first compound 0.316 µM
# [16] = second compound 1 µM, first compound 1 µM
# [17] = second compound 1 µM, first compound 3.16 µM
# [18] = second compound 1 µM, first compound 10 µM
# [19] = second compound 3.16 µM, first compound 0.0316 µM
# [20] = second compound 3.16 µM, first compound 0.1 µM
# [21] = second compound 3.16 µM, first compound 0.316 µM
# [22] = second compound 3.16 µM, first compound 1 µM
# [23] = second compound 3.16 µM, first compound 3.16 µM
# [24] = second compound 3.16 µM, first compound 10 µM
# [25] = second compound 10 µM, first compound 0.0316 µM
# [26] = second compound 10 µM, first compound 0.1 µM
# [27] = second compound 10 µM, first compound 0.316 µM
# [28] = second compound 10 µM, first compound 1 µM
# [29] = second compound 10 µM, first compound 3.16 µM
# [30] = second compound 10 µM, first compound 10 µM
Structure (SMILES),IC50 (second compound 0.1 µM),IC50 (second compound 0.316 µM),IC50 (second compound 1 µM),IC50 (second compound 3.16 µM),IC50 (second compound 10 µM),"viability, T/C [1]","viability, T/C [2]","viability, T/C [3]","viability, T/C [4]","viability, T/C [5]","viability, T/C [6]","viability, T/C [7]","viability, T/C [8]","viability, T/C [9]","viability, T/C [10]","viability, T/C [11]","viability, T/C [12]","viability, T/C [13]","viability, T/C [14]","viability, T/C [15]",other results
COC(=O)c1ccc2c(C(=Nc3ccc(N(C)C(=O)CN4CCN(C)CC4)cc3)c3ccccc3)c(O)[nH]c2c1 + CC1OCC2(CCN(c3cnc(Sc4ccnc(N)c4Cl)c(N)n3)CC2)C1N,179 nM,105 nM,< 31.6 nM,< 31.6 nM,< 31.6 nM,75.1%,57.4%,43.7%,29.2%,25.5%,22.7%,53.9%,50.9%,29.4%,23.6%,25.1%,19.5%,38.5%,30%,24.1%,"viability, T/C [16]: 20.2%; viability, T/C [17]: 21.6%; viability, T/C [18]: 17.4%; viability, T/C [19]: 27%; viability, T/C [20]: 21.7%; viability, T/C [21]: 18.5%; viability, T/C [22]: 18.4%; viability, T/C [23]: 21.2%; viability, T/C [24]: 14.3%; viability, T/C [25]: 33.5%; viability, T/C [26]: 21.3%; viability, T/C [27]: 27.5%; viability, T/C [28]: 20.4%; viability, T/C [29]: 16.9%; viability, T/C [30]: 11.2%"
COc1cc(Nc2ncc3c(n2)-c2ccc(Cl)cc2C(c2c(F)cccc2OC)=NC3)ccc1C(=O)O + CC1OCC2(CCN(c3cnc(Sc4ccnc(N)c4Cl)c(N)n3)CC2)C1N,183 nM,72.8 nM,< 31.6 nM,< 31.6 nM,< 31.6 nM,61.5%,53.9%,45.7%,39%,26.9%,20.1%,56%,47.8%,38.5%,31.3%,22%,16.3%,34.6%,29.7%,27.1%,"viability, T/C [16]: 26.1%; viability, T/C [17]: 21.1%; viability, T/C [18]: 15.4%; viability, T/C [19]: 21.9%; viability, T/C [20]: 18.9%; viability, T/C [21]: 22.2%; viability, T/C [22]: 21.7%; viability, T/C [23]: 14.7%; viability, T/C [24]: 11.4%; viability, T/C [25]: 22.7%; viability, T/C [26]: 17.1%; viability, T/C [27]: 18.4%; viability, T/C [28]: 17.4%; viability, T/C [29]: 16.2%; viability, T/C [30]: 10.7%"
O=C(c1cc(Cc2n[nH]c(=O)c3ccccc23)ccc1F)N1CCN(C(=O)C2CC2)CC1 + CC1OCC2(CCN(c3cnc(Sc4ccnc(N)c4Cl)c(N)n3)CC2)C1N,6460 nM,5420 nM,2280 nM,< 31.6 nM,< 31.6 nM,90%,84.3%,80.8%,85.4%,66.8%,39.8%,84.2%,83.7%,78.6%,69.5%,57.6%,41.1%,101%,70.1%,63.7%,"viability, T/C [16]: 65.5%; viability, T/C [17]: 51.2%; viability, T/C [18]: 34.5%; viability, T/C [19]: 44.2%; viability, T/C [20]: 43%; viability, T/C [21]: 40.3%; viability, T/C [22]: 44.1%; viability, T/C [23]: 37%; viability, T/C [24]: 26.1%; viability, T/C [25]: 37.1%; viability, T/C [26]: 40.5%; viability, T/C [27]: 36.8%; viability, T/C [28]: 43.2%; viability, T/C [29]: 32.7%; viability, T/C [30]: 28%"
